Tests used:
Type in all cases: physicochemical
[1] = Thermal stability of films (chromaticity difference ΔEab before/after hard baking); settings: for ΔEab after baking at 230° C. for another 1 h: film further baked at 230° C. under air for another 1 h; for ΔEab after baking at 230° C. for 1 h: film with alkaline soluble acrylic resin, hard bake 230° C. under air 1 h
Method: For Inventive Example 1, 0.15 g of Dye 1, 1.35 g of PGMEA and 1 g of alkaline soluble acrylic resin solution (MIPHOTO RPR4022, supplied from Miwan Commercial Co., Ltd., 25 to 35% of solid content in methyl 3-methoxypropionate) were mixed and stirred for 2 hours at room temperature using a shaker. For Inventive Example 2, 0.15 g of a mixture of Dye land Dye 2 was used instead of Dye 1. The solutions were filtered with a 0.45 μm PTFE filter to get rid of big particles. Then the filtered solutions were spin coated onto a clean glass substrate with 200 and 270 rpm spin speed for 18 seconds respectively. The obtained films were first dried at 90° C. under air atmosphere for 30 minutes, and then hard baked at 230° C. under air atmosphere for 1 hour. The CIE values (xyY values and lab values) and the UV-Vis were measured before and after the hard bake.
The obtained dry films were further baked at 230° C. under air for 1 hour to evaluate thermal stability of the films. Optical performance after baking (AEab value) were 2.3 (Inventive Example 1) and 1.8 (Inventive Example 2), and the one of after further baking were 3.0 (Inventive Example 1) and 2.7 (Inventive Example 2). A smaller AEab value indicates better heat resistance.
(§1) <Performance Evaluation> • (1) Thermal stability of dyes (Mass loss measured by TGA): • The thermal stability of dye itself was determined by the mass loss of dye measured by TGA under air atmosphere at 230° C. for 1 hour. This evaluation reflects chemical stability of the dye itself. • (2) Film thickness: • Film thickness is measured by scanning the difference in height across the boundary of film and glass substrate with atomic force microscope. • (3) Chromaticity coordinates: • The chromaticity coordinate of film on a glass sheet is directly recorded with UltraScan Pro (Hunterlab) colorimeter. The light source is D65/10. • (4) Thermal stability of films (Chromaticity): • The wet film after spin coating is dried in oven at 90° C. for 30 minutes and then soft baked at 150° C. for 15 minutes. The chromaticity coordinates (L, a, b) are recorded with UltraScan Pro (Hunterlab) colorimeter. D65/10 light source is used and results are based on CIE Lab coordinates. After that the film is hard baked at target temperature (230° C.) for 1 hour and the new chromaticity coordinates (L′, a′, b′) are recorded with the method above. The thermal stability of a film is indicated by the difference of chromaticity coordinate before and after hard baking represented by the following formula;
ΔE=√{square root over ((L−L′)^2+(a−a′)^2+(b−b′)^2)}

[2] = Solubility of dye in PGMEA; settings: solvent PGMEA
[3] = Thermal stability of dyes (mass loss measured by TGA); settings: 230° C. for 1 hour, air atmosphere
Method: as §1

Row | ΔEab after baking at 230° C. for another 1 h [1] | ΔEab after baking at 230° C. for 1 h [1] | Solubility in PGMEA [2] | Mass loss by TGA after baking [3] | Compound
1 | 6.0 | 6.8 | 2.8 wt % |  | Cc1cc(C)c(Nc2ccc(Nc3c(C)cc(O)cc3C)c3c2C(=O)c2ccccc2C3=O)c(C)c1 [(1-((4-hydroxy-2,6-dimethylphenyl)amino)-4-(mesitylamino)-anthraquinone]
2 | 3.0 | 2.3 | 11.2 wt % | 2 wt. % | Cc1cc(C)c(Nc2ccc(Nc3c(C)cc(OCC(O)COc4ccc(C(C)(C)c5ccc(OCC(O)COc6cc(C)c(Nc7ccc(Nc8c(C)cc(C)cc8C)c8c7C(=O)c7ccccc7C8=O)c(C)c6)cc5)cc4)cc3C)c3c2C(=O)c2ccccc2C3=O)c(C)c1 (stereo not drawn) [Dye 1]
3 |  | 33 (color | 1.92 wt % |  | CC(C)Nc1ccc(NC(C)C)c2c1C(=O)c1ccccc1C2=O [Solvent Blue 36]
4 | 6.1 | 7.9 | 0.6 wt % |  | Cc1cc(C)c(Nc2ccc(Nc3c(C)cc(C)cc3C)c3c2C(=O)c2ccccc2C3=O)c(C)c1 [Solvent Blue 104, 1,4-bis(mesitylamino)anthraquinone]

Source: patent US20170038686A1, “ANTHRAQUINONE COMPOUND USED FOR COLOR FILTER OF LCD” (Rohm and Haas Electronic Materials LLC, priority 2014, published 2017)
